ChEMBL document CHEMBL6092167, “Phosphorylation as an Effective Tool to Improve Stability and Reduce Toxicity of Antimicrobial Peptides” (J Med Chem, 2024)
Values after ≈ are worked out from the molar mass of the structure shown. Non-standard residues stand in square brackets, D forms with d. Residues, ends and D or L forms follow the SMILES beside them. pY = N[C@@H](Cc1ccc(OP(=O)(O)O)cc1)C(=O)O; pT = C[C@@H](OP(=O)(O)O)[C@H](N)C(=O)O; 2Nal = N[C@@H](Cc1ccc2ccccc2c1)C(=O)O

Assays:
[1] = test system: Staphylococcus aureus; assay: Antibacterial activity against methicillin resistant Staphylococcus aureus 48 incubated for 18 to 24 hrs by broth microdilution method; format: functional; conditions: time 18-24 hrs
[2] = test system: Staphylococcus aureus; assay: Antibacterial activity against methicillin resistant Staphylococcus aureus ATCC 33591 incubated for 18 to 24 hrs by broth microdilution method; format: functional; conditions: time 18-24 hrs
[3] = test system: Klebsiella pneumoniae; assay: Antibacterial activity against Klebsiella pneumoniae ATCC 700603 incubated for 18 to 24 hrs by broth microdilution method; format: functional; conditions: time 18-24 hrs
[4] = test system: Pseudomonas aeruginosa; assay: Antibacterial activity against Pseudomonas aeruginosa ATCC 27853 incubated for 18 to 24 hrs by broth microdilution method; format: functional; conditions: time 18-24 hrs
[5] = test system: Acinetobacter baumannii; assay: Antibacterial activity against Acinetobacter baumannii ATCC 19606 incubated for 18 to 24 hrs by broth microdilution method; format: functional; conditions: time 18-24 hrs
[6] = test system: Staphylococcus aureus; assay: Antibacterial activity against Staphylococcus aureus ATCC 25923 incubated for 18 to 24 hrs by broth microdilution method; format: functional; conditions: time 18-24 hrs
[7] = test system: Bacillus subtilis; assay: Antibacterial activity against Bacillus subtilis ATCC 23857 incubated for 18 to 24 hrs by broth microdilution method; format: functional; conditions: time 18-24 hrs
[8] = test system: Escherichia coli; assay: Antibacterial activity against Escherichia coli 780 incubated for 18 to 24 hrs by broth microdilution method; format: functional; conditions: time 18-24 hrs
[9] = test system: Escherichia coli; assay: Antibacterial activity against Escherichia coli 850 incubated for 18 to 24 hrs by broth microdilution method; format: functional; conditions: time 18-24 hrs
[10] = Cytotoxicity against HEK293T cells incubated for 1 hr by fluorescence based microplate reader assay; format: toxicity, cell-based, HEK-293T; conditions: human
[11] = test system: Pseudomonas aeruginosa; assay: Antibacterial activity against Pseudomonas aeruginosa 119 incubated for 18 to 24 hrs by broth microdilution method; format: functional; conditions: time 18-24 hrs
[12] = test system: Staphylococcus aureus; assay: Antibacterial activity against Staphylococcus aureus 794 incubated for 18 to 24 hrs by broth microdilution method; format: functional; conditions: time 18-24 hrs
[13] = test system: Escherichia coli; assay: Antibacterial activity against Escherichia coli ATCC 25922 incubated for 18 to 24 hrs by broth microdilution method; format: functional; conditions: time 18-24 hrs
[14] = Hemolytic activity in mouse erythrocyte incubated for 1 hr by microplate reader assay; format: toxicity, cell-based

Row | Compound | MIC [1] [µM] | MIC [2] [µM] | MIC [3] [µM] | MIC [4] [µM] | MIC [5] [µM] | MIC [6] [µM] | MIC [7] [µM] | MIC [8] [µM] | MIC [9] [µM] | CC50 at 1 h [10] [µM] | MIC [11] [µM] | MIC [12] [µM] | MIC [13] [µM] | MHC [14] [µM]
1 | CC(C)C[C@H](NC(=O)[C@H](CC(C)C)NC(=O)[C@H](Cc1ccc(OP(=O)(O)O)cc1)NC(=O)[C@H](CCCCN)NC(=O)[C@H](CC(C)C)NC(=O)[C@H](CCCNC(=N)N)NC(=O)[C@H](CCCCN)NC(=O)[C@H](Cc1c[nH]c2ccccc12)NC(=O)[C@H](CC(C)C)NC(=O)CN)C(N)=O (H-GLWKRLK[pY]LL-NH2) | 16 (≈ 21.9 µg/mL) | 16 (≈ 21.9 µg/mL) | 16 (≈ 21.9 µg/mL) | 32 (≈ 43.8 µg/mL) | 8 (≈ 10.9 µg/mL) | 16 (≈ 21.9 µg/mL) | 8 (≈ 10.9 µg/mL) | 8 (≈ 10.9 µg/mL) | 16 (≈ 21.9 µg/mL) | 148 | 64 (≈ 87.6 µg/mL) | 8 (≈ 10.9 µg/mL) | 8 (≈ 10.9 µg/mL) | 268.04
2 | CC(C)C[C@H](NC(=O)[C@H](CC(C)C)NC(=O)[C@@H](NC(=O)[C@H](CCCCN)NC(=O)[C@H](CC(C)C)NC(=O)[C@H](CCCNC(=N)N)NC(=O)[C@H](CCCCN)NC(=O)[C@H](Cc1ccc2ccccc2c1)NC(=O)[C@H](CC(C)C)NC(=O)CN)[C@@H](C)O)C(N)=O (H-GL[2Nal]KRLKTLL-NH2) | 8 (≈ 9.9 µg/mL) | 8 (≈ 9.9 µg/mL) | 8 (≈ 9.9 µg/mL) | 8 (≈ 9.9 µg/mL) | 8 (≈ 9.9 µg/mL) | 8 (≈ 9.9 µg/mL) | 8 (≈ 9.9 µg/mL) | 8 (≈ 9.9 µg/mL) | 8 (≈ 9.9 µg/mL) | 111 | 8 (≈ 9.9 µg/mL) | 8 (≈ 9.9 µg/mL) | 8 (≈ 9.9 µg/mL) | 154.3
3 | CC(C)C[C@H](NC(=O)[C@H](CC(C)C)NC(=O)[C@H](Cc1ccc(O)cc1)NC(=O)[C@H](CCCCN)NC(=O)[C@H](CC(C)C)NC(=O)[C@H](CCCNC(=N)N)NC(=O)[C@H](CCCCN)NC(=O)[C@H](Cc1ccc2ccccc2c1)NC(=O)[C@H](CC(C)C)NC(=O)CN)C(N)=O (H-GL[2Nal]KRLKYLL-NH2) | 8 (≈ 10.4 µg/mL) | 8 (≈ 10.4 µg/mL) | 8 (≈ 10.4 µg/mL) | 8 (≈ 10.4 µg/mL) | 8 (≈ 10.4 µg/mL) | 8 (≈ 10.4 µg/mL) | 4 (≈ 5.2 µg/mL) | 8 (≈ 10.4 µg/mL) | 8 (≈ 10.4 µg/mL) | 61.5 | 8 (≈ 10.4 µg/mL) | 8 (≈ 10.4 µg/mL) | 8 (≈ 10.4 µg/mL) | 78.09
4 | CC(C)C[C@H](NC(=O)[C@H](CC(C)C)NC(=O)[C@@H](NC(=O)[C@H](CCCCN)NC(=O)[C@H](CC(C)C)NC(=O)[C@H](CCCNC(=N)N)NC(=O)[C@H](CCCCN)NC(=O)[C@H](Cc1ccc2ccccc2c1)NC(=O)[C@H](CC(C)C)NC(=O)CN)[C@@H](C)OP(=O)(O)O)C(N)=O (H-GL[2Nal]KRLK[pT]LL-NH2) | 128 (≈ 169 µg/mL) | 128 (≈ 169 µg/mL) | 128 (≈ 169 µg/mL) | 32 (≈ 42.2 µg/mL) | 64 (≈ 84.3 µg/mL) | 128 (≈ 169 µg/mL) | 32 (≈ 42.2 µg/mL) | 32 (≈ 42.2 µg/mL) | 64 (≈ 84.3 µg/mL) | 131 | 64 (≈ 84.3 µg/mL) | 64 (≈ 84.3 µg/mL) | 64 (≈ 84.3 µg/mL) | > 256
5 | CC(C)C[C@H](NC(=O)[C@H](CC(C)C)NC(=O)[C@H](Cc1ccc(OP(=O)(O)O)cc1)NC(=O)[C@H](CCCCN)NC(=O)[C@H](CC(C)C)NC(=O)[C@H](CCCNC(=N)N)NC(=O)[C@H](CCCCN)NC(=O)[C@H](Cc1ccc2ccccc2c1)NC(=O)[C@H](CC(C)C)NC(=O)CN)C(N)=O (H-GL[2Nal]KRLK[pY]LL-NH2) | 8 (≈ 11 µg/mL) | 8 (≈ 11 µg/mL) | 8 (≈ 11 µg/mL) | 16 (≈ 22.1 µg/mL) | 8 (≈ 11 µg/mL) | 8 (≈ 11 µg/mL) | 8 (≈ 11 µg/mL) | 16 (≈ 22.1 µg/mL) | 8 (≈ 11 µg/mL) | 128 | 32 (≈ 44.1 µg/mL) | 8 (≈ 11 µg/mL) | 8 (≈ 11 µg/mL) | 164.57
6 | O=C(O)c1cn(C2CC2)c2cc(N3CCNCC3)c(F)cc2c1=O [CIPROFLOXACIN] | – | – | – | 4 (≈ 1.33 µg/mL) | 16 (≈ 5.3 µg/mL) | 16 (≈ 5.3 µg/mL) | 2 (≈ 0.663 µg/mL) | – | – | – | – | – | < 1 | –
7 | C[C@@H](O)[C@H]1C(=O)N2C(C(=O)O)=C(S[C@@H]3CN[C@H](C(=O)N(C)C)C3)[C@H](C)[C@H]12 [MEROPENEM] | 128 (≈ 49.1 µg/mL) | 64 (≈ 24.5 µg/mL) | 2 (≈ 0.767 µg/mL) | 1 (≈ 0.383 µg/mL) | 2 (≈ 0.767 µg/mL) | < 1 | < 1 | < 1 | < 1 | – | 8 (≈ 3.07 µg/mL) | < 1 | < 1 | –
8 | COc1cccc(OC)c1C(=O)N[C@@H]1C(=O)N2[C@@H]1SC(C)(C)[C@@H]2C(=O)O [METHICILLIN] | > 128 | > 128 | > 128 | > 128 | > 128 | 8 (≈ 3.04 µg/mL) | < 1 | > 128 | > 128 | – | > 128 | > 128 | > 128 | –
